Target: ROCK1 (Homo sapiens (Human), UniProt Q13464)
Test: ROCK1 kinase IC50 assay (biological test method similar to the ROCK2 assay)
Assay type: biochemical
Description: The kinase IC50 was determined by a commercialized CISBIO kinase detection kit, HTRF KinEASE-STK S2 kit (62ST2PEC). ROCK2 (01-119) employed in the reaction was purchased from Carna Biosciences.
Before the assay, the following working solutions as needed were formulated with corresponding reagents according to the instruction of the kinase detection kit: 1×kinase buffer, 5×STK-52 substrate working solution (1.5 μM) and 5×ATP working solution (1.5 μM), 5×ROCK2 kinase working solution, 4×Streptavidin-XL665 working solution, and 4×STK-Ab-Cryptate 2 detection solution. Then the assay was performed according to the following procedure.
A solution of a compound at a concentration of 10000 nM was prepared with the 1×kinase buffer containing 2.5% DMSO. Gradient dilution of the solution of the compound was performed with the kinase buffer containing DMSO, so as to obtain solutions of a test compound at 9 different concentrations. In addition to wells of test compounds, a positive well (containing all the reagents except the compound) and a negative well (containing all the reagents except the test compound and kinase) were set. Except for the control wells (positive and negative wells), a solution of a test compound (4 μL) was added to each of the reaction wells, and a solution of 2.5% DMSO was added to the control wells. Then the substrate ([…], 2 μL. 5×STK-S2 substrate working solution) was added to each of the reaction wells. The 5×ROCK2 kinase working solution (2 μL, containing 1.4 ng ROCK2 kinase) was added to each of the reaction wells except for the negative well, the volume of which was made up with the 1×kinase buffer (2 μL). The 5×ATP working solution (2 μL) was added to each of the reaction wells, and the mixtures were incubated at room temperature for 2 hours. After the kinase reaction was complete, the 4×Streptavidin-XL665 working solution was added to each of the reaction wells, the solutions were mixed, followed by immediate addition of the 4×STK-Ab-Cryptate 2 detection solution (5 μL), and the mixtures were incubated at room temperature for 1 hour. The fluorescence signal was read on ENVISION (Perkinelmer) (excitation wavelength: 320 nm, and emission wavelength: 665 nm and 615 nm). The inhibitory rate in each well was calculated based on the fluorescence intensity value: ER (Emission Ratio)=(fluorescence intensity at 665 nm/fluorescence intensity at 615 nm); inhibitory rate=(ERpositive−ERtest compound)/(ERpositive−ERnegative)*100%. Curves were plotted and fitted to obtain the median inhibitory concentration (IC50) of each teat compound with the PRISM 5.0 software.
According to a biological test method similar to the above, the IC50 values of the compounds on ROCK1 were tested.

Chain of ROCK1 (Q13464 whole entry, species assumed): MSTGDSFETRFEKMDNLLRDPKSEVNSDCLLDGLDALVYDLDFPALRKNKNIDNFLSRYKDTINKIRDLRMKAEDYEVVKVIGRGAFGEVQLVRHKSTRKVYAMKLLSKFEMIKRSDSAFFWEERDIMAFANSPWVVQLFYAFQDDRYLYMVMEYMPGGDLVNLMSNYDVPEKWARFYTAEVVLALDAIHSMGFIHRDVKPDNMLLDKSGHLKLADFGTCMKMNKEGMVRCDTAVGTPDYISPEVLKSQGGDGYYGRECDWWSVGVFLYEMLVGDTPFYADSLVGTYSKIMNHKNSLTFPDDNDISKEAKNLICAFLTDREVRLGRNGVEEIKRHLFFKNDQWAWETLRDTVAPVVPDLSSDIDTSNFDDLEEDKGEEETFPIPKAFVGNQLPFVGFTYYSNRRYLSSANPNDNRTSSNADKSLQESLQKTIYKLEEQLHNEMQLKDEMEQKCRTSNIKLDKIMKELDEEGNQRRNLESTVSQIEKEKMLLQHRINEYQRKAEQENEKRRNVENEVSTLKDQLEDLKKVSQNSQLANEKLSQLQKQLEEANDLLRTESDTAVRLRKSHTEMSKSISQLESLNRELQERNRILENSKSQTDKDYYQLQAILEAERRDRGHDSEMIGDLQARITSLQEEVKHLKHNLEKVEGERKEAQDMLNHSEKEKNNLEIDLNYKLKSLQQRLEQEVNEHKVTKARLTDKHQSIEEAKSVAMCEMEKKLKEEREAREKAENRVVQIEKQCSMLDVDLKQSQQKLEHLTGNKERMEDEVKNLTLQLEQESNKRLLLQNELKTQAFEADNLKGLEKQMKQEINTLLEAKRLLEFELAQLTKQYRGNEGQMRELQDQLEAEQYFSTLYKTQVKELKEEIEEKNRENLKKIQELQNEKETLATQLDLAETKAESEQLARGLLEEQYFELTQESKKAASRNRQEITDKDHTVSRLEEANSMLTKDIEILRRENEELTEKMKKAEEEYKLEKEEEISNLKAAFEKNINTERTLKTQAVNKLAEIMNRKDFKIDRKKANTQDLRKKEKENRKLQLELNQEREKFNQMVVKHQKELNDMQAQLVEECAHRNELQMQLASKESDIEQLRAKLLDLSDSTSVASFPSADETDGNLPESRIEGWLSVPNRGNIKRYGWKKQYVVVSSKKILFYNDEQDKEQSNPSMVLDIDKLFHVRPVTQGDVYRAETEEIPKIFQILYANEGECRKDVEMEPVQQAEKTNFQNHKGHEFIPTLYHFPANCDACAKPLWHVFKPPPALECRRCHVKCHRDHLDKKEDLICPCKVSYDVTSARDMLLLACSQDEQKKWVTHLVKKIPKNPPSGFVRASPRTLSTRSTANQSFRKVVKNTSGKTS

| IC50 [µM] | SMILES |
| --- | --- |
| > 10 | O=C(Nc1nncs1)c1cc2ccc(-c3nccc(Nc4ccc5[nH]ncc5c4)n3)cc2[nH]1 [TDI01247, 6-(4-((1H-indazol-5-yl)amino)pyrimidin-2-yl)-N-(1,3,4-thiadiazol-2-yl)-1H-indole-2-carboxamide] |
| > 10 | Cc1cc(Nc2ccc3[nH]ncc3c2)nc(-c2ccc3cc(C(=O)Nc4ccnnc4)[nH]c3c2)n1 [TDI01251, 6-(4-((1H-indazol-5-yl)amino)-6-methyl-pyrimidin-2-yl)-N-(pyridazin-4-yl)-1H-indole-2-carboxamide] |
| > 10 | Cc1c(Nc2ccnc(-c3ccc4cc(C(=O)Nc5ccnnc5)[nH]c4c3)n2)ccc2[nH]ncc12 [TDI01276, 6-(4-((4-methyl-1H-indazol-5-yl)amino)-pyrimidin-2-yl)-N-(pyridazin-4-yl)-1H-indole-2-carboxamide] |
| > 10 | O=C(Nc1ccncc1Cl)c1cc2ccc(-c3nccc(Nc4ccc5[nH]ncc5c4)n3)cc2[nH]1 [TDI01290, 6-(4-((1H-indazol-5-yl)amino)-pyrimidin-2-yl)-N-(3-chloropyridin-4-yl)-1H-indole-2-carboxamide] |
| 0.573 | O=C(NC1CCOCC1)c1cc2ccc(-c3nccc(Nc4ccc5[nH]ncc5c4)n3)cc2[nH]1 [TDI01291, 6-(4-((1H-indazol-5-yl)amino)-pyrimidin-2-yl)-N-(tetrahydro-2H-pyran-4-yl)-1H-indole-2-carboxamide] |

Second part, the compound before the results:

| SMILES | IC50 [µM] |
| --- | --- |
| Cn1c(C(=O)Nc2ccnnc2)cc2ccc(-c3nccc(Nc4ccc5[nH]ncc5c4)n3)cc21 [TDI01201, 6-(4-((1H-indazol-5-yl)amino)-pyrimidin-2-yl)-1-methyl-N-(pyridazin-4-yl)-1H-indole-2-carboxamide] | 6.92 |
| O=C(Nc1ccnnc1)c1cc2ccc(-c3ncc(F)c(Nc4ccc5[nH]ncc5c4)n3)cc2[nH]1 [TDI01213, 6-(4-((1H-indazol-5-yl)amino)-5-fluoropyrimidin-2-yl)-N-(pyridazin-4-yl)-1H-indole-2-carboxamide] | > 10 |
| CN1CCN(CC(=O)n2ccc3ccc(-c4nccc(Nc5ccc6[nH]ncc6c5)n4)cc32)CC1 [TDI01230, 1-(6-(4-((1H-indazol-5-yl)amino)pyrimidin-2-yl)-1H-indol-1-yl)-2-(4-methylpiperazin-1-yl)ethan-1-one] | 1.5 |
| Cc1nc(-c2ccc3cc(C(=O)Nc4ccnnc4)[nH]c3c2)nc(Nc2ccc3[nH]ncc3c2)c1C [TDI01232, 6-(4-((1H-indazol-5-yl)amino)-5,6-dimethyl-pyrimidin-2-yl)-N-(pyridazin-4-yl)-1H-indole-2-carboxamide] | > 10 |
| O=C(Nc1ccnnc1)c1ccc2ccc(-c3nccc(Nc4ccc5[nH]ncc5c4)n3)cc2n1 [TDI01236, 7-(4-((1H-indazol-5-yl)ami-no)pyrimidin-2-yl)-N-(pyridazin-4-yl)quinoline-2-carboxamide] | > 10 |
| O=C(Nc1ccnnc1)N1Cc2ccc(-c3nccc(Nc4ccc5[nH]ncc5c4)n3)cc2C1 [TDI01237, 5-(4-((1H-indazol-5-yl)amino)pyrimidin-2-yl)-N-(pyridazin-4-yl)isoindoline-2-carboxamide] | > 10 |
| Cc1cnc(-c2ccc3cc(C(=O)Nc4ccnnc4)[nH]c3c2)nc1Nc1ccc2[nH]ncc2c1 [TDI01250, 6-(4-((1H-indazol-5-yl)amino)-5-methyl-pyrimidin-2-yl)-N-(pyridazin-4-yl)-1H-indole-2-carboxamide] | > 10 |
| CC(C)NC(=O)c1cc2ccc(-c3nccc(Nc4ccc(-c5cn[nH]c5)cc4)n3)cc2[nH]1 [TDI01280, 6-(4-((4-(1H-pyrazol-4-yl)phenyl)ami-no)pyrimidin-2-yl)-N-isopropyl-1H-indole-2-carboxamide] | 1.02 |
| CN(C)c1cnccc1NC(=O)c1cc2ccc(-c3nccc(Nc4ccc5[nH]ncc5c4)n3)cc2[nH]1 [TDI01289, 6-(4-((1H-indazol-5-yl)amino)-pyrimidin-2-yl)-N-(3-(dimethylamino)-pyridin-4-yl)-1H-indole-2-carboxamide] | 0.98 |
